Literature values, collected in patent US10716757B2, “Liposomal formulation for the oral hepatic delivery of drugs” (Universität Heidelberg, priority 2015, dated 2020).

Legend:
[1] = film method followed by extrusion, reference [17]
[2] = Myrcludex B per se, no liposomes

| Compound | encapsulation efficiency [1] | oral bioavailability [2] |
| --- | --- | --- |
| C[C@@H](O)[C@@H]1NC(=O)[C@H](CCCCN)NC(=O)[C@@H](Cc2c[nH]c3ccccc23)NC(=O)[C@H](Cc2ccccc2)NC(=O)[C@@H](NC(=O)[C@H](N)Cc2ccccc2)CSSC[C@@H](C(=O)N[C@H](CO)[C@@H](C)O)NC1=O [octreotide] | 13.0 % (m/m) |  |
| Myr-HBVpreS/2-48 [Myrcludex B] |  | < 1% |
